{"source": "patent US10517889B2", "about": "“Modulators of SMAD7 expression” (Ionis Pharmaceuticals, Inc., priority 2017, dated 2019)", "note": "Strand notation (5' to 3'): a small letter for the sugar, then the base; units joined by * are phosphorothioate-linked, units joined directly phosphodiester-linked; [ ] holds rarer units or linkages, { } end groups; capitals alone tell only the bases. k = constrained ethyl (cEt); [5mC] = 5-methylcytosine; d = 2'-deoxy (DNA)"}
{"system": "human SMAD7 mRNA", "test": "Antisense inhibition of human SMAD7 mRNA expression in Hep3B cells by 3-10-3 cEt gapmers, 10,000 nM, electroporation (Example 2)", "type": "cell-based", "settings": "Hep3B cells, electroporation with 10,000 nM antisense oligonucleotide, approximately 24 hours, SMAD7 mRNA by RT-PCR (RTS5062), relative to untreated control cells", "method_in_brief": "(§1)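 Hep3B cells (20,000 per well) were electroporated with 10,000 nM 16-mer 3-10-3 cEt gapmer (phosphorothioate, 5-methylcytosine). After about 24 h, SMAD7 mRNA was quantified by qRT-PCR with primer probe set RTS5062, normalised to RIBOGREEN total RNA, and expressed as percent inhibition versus untreated cells.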", "units": {"% Inhibition": "%"}}
{"substance": "798664 (kG*kG*k[5mC]*d[5mC]*dT*dG*d[5mC]*dG*d[5mC]*dT*d[5mC]*d[5mC]*dG*kG*k[5mC]*kT; antisense) [compound 798664]", "% Inhibition": 7}
{"substance": "798665 (k[5mC]*kA*kG*dT*d[5mC]*dT*d[5mC]*d[5mC]*d[5mC]*dG*dG*dA*dG*kG*k[5mC]*k[5mC]; antisense) [compound 798665]", "% Inhibition": 7}
{"substance": "798666 (k[5mC]*kA*kT*dG*d[5mC]*dG*d[5mC]*d[5mC]*dA*dG*dT*d[5mC]*dT*k[5mC]*k[5mC]*k[5mC]; antisense) [compound 798666]", "% Inhibition": 33}
{"substance": "798667 (kT*kG*kG*d[5mC]*dA*dT*dG*d[5mC]*dG*d[5mC]*d[5mC]*dA*dG*kT*k[5mC]*kT; antisense) [compound 798667]", "% Inhibition": 21}
{"substance": "798668 (kT*k[5mC]*k[5mC]*dG*dT*dG*dG*d[5mC]*dA*dT*dG*d[5mC]*dG*k[5mC]*k[5mC]*kA; antisense) [compound 798668]", "% Inhibition": 45}
{"substance": "798669 (k[5mC]*kG*k[5mC]*dT*d[5mC]*d[5mC]*dG*dT*dG*dG*d[5mC]*dA*dT*kG*k[5mC]*kG; antisense) [compound 798669]", "% Inhibition": 0}
{"substance": "798670 (kG*kG*k[5mC]*dG*dG*d[5mC]*dG*dG*d[5mC]*d[5mC]*d[5mC]*dG*dA*kG*kG*kG; antisense) [compound 798670]", "% Inhibition": 44}
{"substance": "798671 (antisense kA*kG*k[5mC]*dG*dG*d[5mC]*dG*dG*d[5mC]*dG*dG*d[5mC]*d[5mC]*k[5mC]*kG*kA) [compound 798671]", "% Inhibition": 61}
{"substance": "798678 (antisense k[5mC]*kG*k[5mC]*dA*d[5mC]*dA*d[5mC]*d[5mC]*dA*dT*dG*dA*dA*kG*kA*kA) [compound 798678]", "% Inhibition": 45}
{"substance": "798679 (antisense k[5mC]*kT*k[5mC]*d[5mC]*dG*d[5mC]*dA*d[5mC]*dA*d[5mC]*d[5mC]*dA*dT*kG*kA*kA) [compound 798679]", "% Inhibition": 32}
{"substance": "798680 (antisense k[5mC]*kA*kT*dG*dA*d[5mC]*d[5mC]*dT*d[5mC]*d[5mC]*dG*d[5mC]*dA*k[5mC]*kA*k[5mC]) [compound 798680]", "% Inhibition": 31}
{"substance": "798681 (antisense kG*kA*kA*d[5mC]*dA*dT*dG*dA*d[5mC]*d[5mC]*dT*d[5mC]*d[5mC]*kG*k[5mC]*kA) [compound 798681]", "% Inhibition": 29}
{"substance": "798682 (antisense kG*k[5mC]*kT*dA*dA*dG*dG*dA*dG*d[5mC]*dG*dA*dA*k[5mC]*kA*kT) [compound 798682]", "% Inhibition": 60}
{"substance": "798683 (antisense kG*k[5mC]*k[5mC]*dT*dG*d[5mC]*dT*dA*dA*dG*dG*dA*dG*k[5mC]*kG*kA) [compound 798683]", "% Inhibition": 51}
{"substance": "798684 (antisense k[5mC]*kG*kT*dT*dT*dG*d[5mC]*d[5mC]*dT*dG*d[5mC]*dT*dA*kA*kG*kG) [compound 798684]", "% Inhibition": 51}
{"substance": "798693 (antisense kG*k[5mC]*k[5mC]*dG*dG*dG*d[5mC]*dG*d[5mC]*dA*d[5mC]*dG*dG*k[5mC]*kT*k[5mC]) [compound 798693]", "% Inhibition": 0}
{"substance": "798694 (antisense kG*kT*k[5mC]*d[5mC]*dT*d[5mC]*dG*d[5mC]*d[5mC]*dG*d[5mC]*d[5mC]*dG*kG*kG*k[5mC]) [compound 798694]", "% Inhibition": 0}
{"substance": "798695 (antisense kT*kG*k[5mC]*dG*d[5mC]*d[5mC]*d[5mC]*dT*d[5mC]*d[5mC]*dT*d[5mC]*d[5mC]*kT*k[5mC]*kG) [compound 798695]", "% Inhibition": 35}
{"substance": "798697 (antisense kA*k[5mC]*k[5mC]*dT*d[5mC]*d[5mC]*d[5mC]*d[5mC]*d[5mC]*dT*dG*d[5mC]*dG*k[5mC]*k[5mC]*k[5mC]) [compound 798697]", "% Inhibition": 23}
{"substance": "798698 (antisense kA*kG*k[5mC]*dT*d[5mC]*dG*d[5mC]*d[5mC]*dT*d[5mC]*d[5mC]*dT*d[5mC]*k[5mC]*kT*k[5mC]) [compound 798698]", "% Inhibition": 57}
{"substance": "798699 (antisense k[5mC]*kG*k[5mC]*dA*dG*d[5mC]*dT*d[5mC]*dG*d[5mC]*d[5mC]*dT*d[5mC]*k[5mC]*kT*k[5mC]) [compound 798699]", "% Inhibition": 51}
{"substance": "798700 (antisense k[5mC]*k[5mC]*k[5mC]*d[5mC]*dG*d[5mC]*dA*dG*d[5mC]*dT*d[5mC]*dG*d[5mC]*k[5mC]*kT*k[5mC]) [compound 798700]", "% Inhibition": 52}
{"substance": "798701 (antisense k[5mC]*kT*kT*d[5mC]*dT*d[5mC]*d[5mC]*d[5mC]*d[5mC]*dG*d[5mC]*dA*dG*k[5mC]*kT*k[5mC]) [compound 798701]", "% Inhibition": 23}
{"substance": "798702 (antisense k[5mC]*k[5mC]*k[5mC]*d[5mC]*dT*dT*d[5mC]*dT*d[5mC]*d[5mC]*d[5mC]*d[5mC]*dG*k[5mC]*kA*kG) [compound 798702]", "% Inhibition": 45}
{"system": "human SMAD7 mRNA", "test": "Antisense inhibition of human SMAD7 mRNA expression in Hep3B cells by 3-10-3 cEt gapmers, 10,000 nM, electroporation (Example 2)", "type": "cell-based", "settings": "Hep3B cells, electroporation with 10,000 nM antisense oligonucleotide, approximately 24 hours, primer probe set RTS5062, relative to untreated control cells", "method_in_brief": "as §1", "units": {"% inhibition of SMAD7 mRNA expression": "%"}}
{"substance": "798660 (kT*kG*k[5mC]*d[5mC]*d[5mC]*d[5mC]*dA*d[5mC]*d[5mC]*d[5mC]*d[5mC]*dG*d[5mC]*kG*k[5mC]*kG; antisense) [compound 798660]", "% inhibition of SMAD7 mRNA expression": 38}
{"substance": "798661 (kG*kG*k[5mC]*dT*dG*d[5mC]*d[5mC]*d[5mC]*d[5mC]*dA*d[5mC]*d[5mC]*d[5mC]*k[5mC]*kG*k[5mC]; antisense) [compound 798661]", "% inhibition of SMAD7 mRNA expression": 52}
{"substance": "798663 (kT*kG*k[5mC]*dG*d[5mC]*dT*d[5mC]*d[5mC]*dG*dG*d[5mC]*dT*dG*k[5mC]*k[5mC]*k[5mC]; antisense) [compound 798663]", "% inhibition of SMAD7 mRNA expression": 41}
{"substance": "798672 (antisense kG*kG*k[5mC]*dA*dG*dG*dA*dG*d[5mC]*dG*dG*d[5mC]*dG*kG*k[5mC]*kG) [compound 798672]", "% inhibition of SMAD7 mRNA expression": 6}
{"substance": "798673 (antisense kG*kG*k[5mC]*d[5mC]*d[5mC]*dG*dG*dG*d[5mC]*dA*dG*dG*dA*kG*k[5mC]*kG) [compound 798673]", "% inhibition of SMAD7 mRNA expression": 15}
{"substance": "798674 (antisense k[5mC]*kA*kG*dG*d[5mC]*dG*dA*d[5mC]*dA*dG*d[5mC]*dA*dG*k[5mC]*kA*kG) [compound 798674]", "% inhibition of SMAD7 mRNA expression": 39}
{"substance": "798675 (antisense k[5mC]*kA*kG*dG*d[5mC]*dG*d[5mC]*dA*dG*dG*d[5mC]*dG*dA*k[5mC]*kA*kG) [compound 798675]", "% inhibition of SMAD7 mRNA expression": 51}
{"substance": "798676 (antisense k[5mC]*k[5mC]*kA*dT*dG*dA*dA*dG*dA*dA*dG*dT*d[5mC]*kG*kG*kG) [compound 798676]", "% inhibition of SMAD7 mRNA expression": 21}
{"substance": "798677 (antisense kA*k[5mC]*kA*d[5mC]*d[5mC]*dA*dT*dG*dA*dA*dG*dA*dA*kG*kT*k[5mC]) [compound 798677]", "% inhibition of SMAD7 mRNA expression": 36}
{"substance": "798685 (antisense kG*kA*kG*dG*d[5mC]*dG*dA*dG*dG*dA*dG*dA*dA*kA*kA*kG) [compound 798685]", "% inhibition of SMAD7 mRNA expression": 58}
{"substance": "798688 (antisense kG*kT*k[5mC]*d[5mC]*dT*dG*dA*dA*d[5mC]*dA*dT*dG*d[5mC]*kG*kG*kG) [compound 798688]", "% inhibition of SMAD7 mRNA expression": 68}
{"substance": "798689 (antisense kG*k[5mC]*k[5mC]*dG*dG*dA*d[5mC]*dG*dA*dG*d[5mC]*dG*d[5mC]*kA*kG*kA) [compound 798689]", "% inhibition of SMAD7 mRNA expression": 33}
{"substance": "798690 (antisense kG*kG*k[5mC]*dT*d[5mC]*d[5mC]*dT*d[5mC]*d[5mC]*dA*dG*dA*dG*kA*k[5mC]*kG) [compound 798690]", "% inhibition of SMAD7 mRNA expression": 29}
{"substance": "798691 (antisense k[5mC]*kG*k[5mC]*dA*d[5mC]*dG*dG*d[5mC]*dT*d[5mC]*d[5mC]*dT*d[5mC]*k[5mC]*kA*kG) [compound 798691]", "% inhibition of SMAD7 mRNA expression": 42}
{"substance": "798692 (antisense kG*kG*kG*d[5mC]*dG*d[5mC]*dA*d[5mC]*dG*dG*d[5mC]*dT*d[5mC]*k[5mC]*kT*k[5mC]) [compound 798692]", "% inhibition of SMAD7 mRNA expression": 48}
{"substance": "798703 (antisense kG*kT*k[5mC]*d[5mC]*dG*dT*d[5mC]*dG*d[5mC]*d[5mC]*d[5mC]*d[5mC]*dT*kT*k[5mC]*kT) [compound 798703]", "% inhibition of SMAD7 mRNA expression": 68}
{"substance": "798704 (antisense k[5mC]*kT*kG*dT*d[5mC]*d[5mC]*dG*dT*d[5mC]*dG*d[5mC]*d[5mC]*d[5mC]*k[5mC]*kT*kT) [compound 798704]", "% inhibition of SMAD7 mRNA expression": 61}
{"substance": "798705 (antisense kG*kG*k[5mC]*dT*dG*dT*d[5mC]*d[5mC]*dG*dT*d[5mC]*dG*d[5mC]*k[5mC]*k[5mC]*k[5mC]) [compound 798705]", "% inhibition of SMAD7 mRNA expression": 41}
{"substance": "798706 (antisense k[5mC]*kG*kG*d[5mC]*dT*dG*dT*d[5mC]*d[5mC]*dG*dT*d[5mC]*dG*k[5mC]*k[5mC]*k[5mC]) [compound 798706]", "% inhibition of SMAD7 mRNA expression": 1}
{"substance": "798707 (antisense kG*k[5mC]*kT*d[5mC]*dG*dG*d[5mC]*dT*dG*dT*d[5mC]*d[5mC]*dG*kT*k[5mC]*kG) [compound 798707]", "% inhibition of SMAD7 mRNA expression": 74}
{"substance": "798708 (antisense k[5mC]*kG*k[5mC]*dT*d[5mC]*dG*dG*d[5mC]*dT*dG*dT*d[5mC]*d[5mC]*kG*kT*k[5mC]) [compound 798708]", "% inhibition of SMAD7 mRNA expression": 45}
